According to patent publication US20240131356A1, “COMBINATION OF INTRACELLULAR AND EXTRACELLULAR PHOTOSENSITIZERS FOR TREATMENT OF BACTERIAL INFECTION” (priority 2021, published 2024):
Where two headings read alike, the source gives them in different places.

System: hrtAB promoter (HssRS activation; CgoX activation)
Experiment: XylE colorimetric reporter assay (phrt.xylE), activation of HssRS / hrtAB expression
Format: cell-based, Staphylococcus aureus strain Newman
Details: for Specifc Activity @ 30 μM: 30 μM compound, XylE activity normalized to protein; for Specifc Activity @ 30 μM / Specifc Activity (nMol/min*mg), data collected at 10 uM: 6 h subculture; for Specifc Activity (nMol/min*mg), data collected at 10 uM: footnote a: data collected at 10 uM; for XylE activity in comparison to '8882 at 10 μM: six-hour exposure (FIG. 2A); for XylE activity in comparison to '8882 at 30 μM: six-hour exposure (FIG. 2B); for EC50: Staphylococcus aureus, NEWMAN; for XylE activity (ability to activate HssRS) in comparison to '8882: dose not stated
Protocol: To maximize the production of coproporphyrin III and thereby increase blue-light mediated killing of S. aureus, synthesized analogs of VU0038882 were tested. To determine the relative efficacy of each analog, a Newman strain of S. aureus, transformed with the phrt.xylE (11) reporter vector was used. This reporter allows for colorimetric assessment of intracellular heme production. To perform the assay, each individual analog was added to 3 mL of TSB+10 μg/mL chloramphenicol to reach a concentration of 30 μM, and then 700 μL of this newly made 30 μM solution was added to 1.3 mL of remaining TSB+10 μg/mL chloramphenicol media to create the 10 μM concentration. Either 10 μM or 30 μM concentrations of compounds in medium were then aliquoted into three 0.5 mL replicate tubes. Three separate 16- to 18-hour overnight subcultures from isolated colonies were back-diluted 1:100 into the tubes creating three biological replicates and were subcultured for 6 hours at 37° C. and 180 rpm. After incubation, the cells were pelleted at 16,400 g for 5 minutes and the supernatant aspirated before washing with 0.5 mL of 20 mM potassium phosphate wash buffer. After pelleting the cells again at 16,400 g for 5 minutes the wash buffer was aspirated, and the pellets were stored at −80° C. until further use.
When the cells were ready to be lysed and data collected, samples were removed from the −80° C. freezer, allowed to thaw, and resuspended in 150 μL of lysis buffer (100 mM potassium phosphate pH=8.0, 10% v/v acetone, 20 μg/mL lysostaphin) before incubation in a 37° C. bead bath for 20 minutes and then cooled for 5 minutes on ice. The samples were then centrifuged at 16,400 g and 4° C. for 30 minutes to separate the pellet from the lysate, which was then placed into a 96-well microtiter plate and kept on ice. The lysate from each sample was pipetted into 20 μL aliquots on a round-bottom or flat-bottom 96-well plate on ice. The round bottom plate was labeled for bicinchoninic acid assay (BCA) protein content analysis, and 10 μL of BCA standards was added to extra wells on the plate. Protein quantification was performed using a Pierce BCA Protein Assay Kit as per the manufacturer's instructions. While the BCA plate was in the incubator, the flat-bottom plate was prepared by thawing 1 M catechol on ice and making 100 mM potassium phosphate (pH=8.0) assay buffer. After preparing a kinetic read at 375 nm for 10 minutes with a minimal interval between reads, the catechol was diluted 1:1,000 into the assay buffer and quickly dispensed into a sterile basin, then 200 μL of the solution was pipetted into each well using a multichannel pipette. All data were exported into Excel software (Microsoft) and analyzed for specific activity of each compound and activity relative to VU0038882 controls.
After 219 analogs had been screened, the compounds with the best percent VU0038882 activity were tested again following the same protocol, but with twelve replicates per concentration with data expressed as averages ±the standard deviation (SD). Additionally, the top-performing compounds were tested using the XylE protocol with a concentration gradient to determine their half maximal effective concentration (EC50) values.
Photosensitizer-conjugated antibodies expose bacteria to reactive oxygen species (ROS) externally, but this treatment can be paired with small molecule treatment to generate ROS internally via heme biosynthesis pathway intermediates. To discover new compounds capable of activating CgoX and/or displaying less toxicity to eukaryotic cells, a medicinal chemistry campaign was initatied based on systematic alternation of the '8882 structure. Each new analog was tested for the ability to activate HssRS using the previously described XylE colorimetric assay that employs a reporter construct in which the hrtAB promoter is fused to a xylE reporter gene. […]

## Cc1ccc(-c2cc(-c3ccc4ccccc4c3O)n[nH]2)o1 ['9624, 2-(5-(5-Methylfuran-2-yl)-1H-pyrazol-3-yl)naphthalen-1-ol]
  Specifc Activity @ 30 μM: 1.152 ± 0.382 nmol/min/mg

## Cc1c(-c2ccccc2O)n[nH]c1-c1ccco1 [Compound 0394, 2-(5-(Furan-2-yl)-4-methyl-1H-pyrazol-3-yl)phenol]
  Specifc Activity @ 30 μM: 0.0287 ± 0.0198 nmol/min/mg

## Oc1c(-c2cc(-c3cnco3)[nH]n2)ccc2ccccc12 [′0071, 2-(5-(Oxazol-5-yl)-1H-pyrazol-3-yl)naphthalen-1-ol]
  Specifc Activity (nMol/min*mg), data collected at 10 uM: 1.152 ± 0.263^a nMol/min*mg

## CC(C)Nc1cc(-c2ccc3ccccc3c2O)n[nH]1 [′0457, 2-(5-(isopropylamino)-1H-pyrazol-3-yl)naphthalen-1-ol]
  Specifc Activity @ 30 μM: 0.5082 ± 0.770 nmol/min/mg

## Oc1c(-c2n[nH]c(-c3ccco3)n2)ccc2ccccc12 [′0485, 2-(5-(Furan-2-yl)-1H-1,2,4-triazol-3-yl)naphthalen-1-ol]
  Specifc Activity @ 30 μM: 1.697 ± 0.335 nmol/min/mg

## Oc1c(-c2nnc(-c3ccco3)o2)ccc2ccccc12 [′0527, 2-(5-(furan-2-yl)-1,3,4-oxadiazol-2-yl)naphthalen-1-ol]
  Specifc Activity @ 30 μM: 0.2270 ± 0.0147 nmol/min/mg

## Oc1c(-c2n[nH]c3c2CCc2ccoc2-3)ccc2ccccc12 [′1790, 2-(4,5-Dihydro-2H-furo[3,2-g]indazol-3-yl)naphthalen-1-ol]
  Specifc Activity @ 30 μM: 4.146 ± 2.397 nmol/min/mg

## Cc1nn(C)c(C)c1-c1cc(-c2ccc3ccccc3c2O)n[nH]1 [′2069, 2-(1′,3′,5′-trimethyl-1′H,2H-[3,4′-bipyrazol]-5-yl)naphthalen-1-ol]
  XylE activity in comparison to '8882 at 10 μM: weaker activity compared to '8882
  Specifc Activity @ 30 μM: 10.46 ± 1.54 nmol/min/mg
  XylE activity in comparison to '8882 at 30 μM: equivalent
  EC50: 28.5 µM
read-out: logEC50 (converted)
  EC50: 28.5 µM

## Oc1cc2ccccc2cc1-c1cc(-c2ccco2)[nH]n1 [′3918, 3-(5-(Furan-2-yl)-1H-pyrazol-3-yl)naphthalen-2-ol]
  Specifc Activity @ 30 μM: 0.2543 ± 0.127 nmol/min/mg

## Nc1ncccc1-c1cc(-c2ccco2)[nH]n1 [′3989, 3-(5-(Furan-2-yl)-1H-pyrazol-3-yl)pyridin-2-amine]
  Specifc Activity @ 30 μM: 0.2491 ± 0.2546 nmol/min/mg

## Oc1ccc(F)cc1-c1cc(-c2ccco2)[nH]n1 [′4082, 4-Fluoro-2-(5-(furan-2-yl)-1H-pyrazol-3-yl)phenol]
  Specifc Activity @ 30 μM: 5.884 ± 1.88 nmol/min/mg

## Oc1cc(F)ccc1-c1cc(-c2ccco2)[nH]n1 [′4083, 5-Fluoro-2-(5-(furan-2-yl)-1H-pyrazol-3-yl)phenol]
  XylE activity in comparison to '8882 at 10 μM: activity similar to '8882
  Specifc Activity @ 30 μM: 28.76 ± 9.41 nmol/min/mg
  XylE activity in comparison to '8882 at 30 μM: activity similar to '8882
  EC50: 20.9 µM
read-out: logEC50 (converted)
  EC50: 20.9 µM

## Cn1ccc(-c2cc(-c3ccc4ccccc4c3O)n[nH]2)n1 [′6699, 2-(1-Methyl-1H,2′H-[3,3′-bipyrazol]-5′-yl)naphthalen-1-ol]
  Specifc Activity @ 30 μM: 5.138 ± 4.82 nmol/min/mg

## Cn1ncc2cc(-c3cc(-c4ccc5ccccc5c4O)n[nH]3)ccc21 [′6700, 2-(5-(1-methyl-1H-indazol-5-yl)-1H-pyrazol-3-yl)naphthalen-1-ol]
  Specifc Activity @ 30 μM: 24.26 ± 3.69 nmol/min/mg
  EC50: 8.18 µM
  XylE activity (ability to activate HssRS) in comparison to '8882: roughly equivalent to '8882
read-out: logEC50 (converted)
  EC50: 8.18 µM

## c1ccc(-c2cc(-c3ccco3)[nH]n2)nc1 [′7092, 2-(5-(Furan-2-yl)-1H-pyrazol-3-yl)pyridine]
  Specifc Activity @ 30 μM: 0.2374 ± 0.1354 nmol/min/mg

## Oc1ncccc1-c1cc(-c2ccco2)[nH]n1 [′7268, 3-(5-(Furan-2-yl)-1H-pyrazol-3-yl)pyridin-2-ol]
  Specifc Activity @ 30 μM: 0.4793 ± 1.2179 nmol/min/mg

## Cn1nccc1-c1cc(-c2ccc3ccccc3c2O)n[nH]1 [′8233, 2-(2′-Methyl-2H,2′H-[3,3′-bipyrazol]-5-yl)naphthalen-1-ol]
  Specifc Activity @ 30 μM: 0.5053 ± 0.294 nmol/min/mg

## C#Cc1cc(-c2ccc3ccccc3c2O)n[nH]1 [′9128, 2-(5-Ethynyl-1H-pyrazol-3-yl)naphthalen-1-ol]
  Specifc Activity (nMol/min*mg), data collected at 10 uM: 0.442 ± 0.089^a nMol/min*mg

## Oc1c(-c2cc(-c3cc4ccccc4s3)[nH]n2)ccc2ccccc12 [′9130, 2-(5-(Benzo[b]thiophen-2-yl)-1H-pyrazol-3-yl)naphthalen-1-ol]
  Specifc Activity @ 30 μM: 1.012 ± 0.064 nmol/min/mg

## Oc1c(-c2cc(-c3ccncc3)[nH]n2)ccc2ccccc12 [′9131]
  Specifc Activity @ 30 μM: 0.437 ± 0.26 nmol/min/mg

## Oc1c(-c2cc(-c3ccsc3)[nH]n2)ccc2ccccc12 [′9132, 2-(5-(thiophen-3-yl)-1H-pyrazol-3-yl)naphthalen-1-ol]
  Specifc Activity @ 30 μM: 12.82 ± 1.12 nmol/min/mg
  EC50: 26.2 µM
  XylE activity (ability to activate HssRS) in comparison to '8882: lost some activity compared with '8882
read-out: logEC50 (converted)
  EC50: 26.2 µM

## Oc1c(-c2cc(-c3cc4ccccc4o3)[nH]n2)ccc2ccccc12 [′9134, 2-(5-(Benzofuran-2-yl)-1H-pyrazol-3-yl)naphthalen-1-ol]
  Specifc Activity @ 30 μM: 0.130 ± 0.142 nmol/min/mg

## Oc1c(-c2cc(C3CCCO3)[nH]n2)ccc2ccccc12 (stereo not shown) [′9437, 2-(5-(tetrahydrofuran-2-yl)-1H-pyrazol-3-yl)naphthalen-1-ol]
  Specifc Activity @ 30 μM: 0.088 ± 0.041 nmol/min/mg

## Cc1ccc(-c2cc(-c3ccc4ccccc4c3O)n[nH]2)s1 [′9625, 2-(5-(5-Methylthiophen-2-yl)-1H-pyrazol-3-yl)naphthalen-1-ol]
  Specifc Activity @ 30 μM: 8.023 ± 1.065 nmol/min/mg
  EC50: 13.1 µM
read-out: logEC50 (converted)
  EC50: 13.1 µM

## Oc1c(-c2cc(-c3cccs3)[nH]n2)ccc2ccccc12 [′9626, 2-(5-(Thiophen-2-yl)-1H-pyrazol-3-yl)naphthalen-1-ol]
  XylE activity in comparison to '8882 at 10 μM: performed well
  Specifc Activity @ 30 μM: 28.86 ± 2.66 nmol/min/mg
  XylE activity in comparison to '8882 at 30 μM: comparable to '8882
  EC50: 19.9 µM
read-out: logEC50 (converted)
  EC50: 19.9 µM

## Cc1csc(-c2cc(-c3ccc4ccccc4c3O)n[nH]2)c1 [′9627, 2-(5-(4-Methylthiophen-2-yl)-1H-pyrazol-3-yl)naphthalen-1-ol]
  Specifc Activity @ 30 μM: 10.15 ± 3.65 nmol/min/mg

## Cc1cnccc1-c1cc(-c2ccc3ccccc3c2O)n[nH]1 [′9767, 2-(5-(3-Methylpyridin-4-yl)-1H-pyrazol-3-yl)naphthalen-1-ol]
  Specifc Activity (nMol/min*mg), data collected at 10 uM: 1.393 ± 0.392^a nMol/min*mg

## C/C=C/c1cc(-c2ccc3ccccc3c2O)n[nH]1 [′9768, (E)-2-(5-(Prop-1-en-1-yl)-1H-pyrazol-3-yl)naphthalen-1-ol]
  Specifc Activity @ 30 μM: 6.951 ± 0.983 nmol/min/mg

## Cc1sccc1-c1cc(-c2ccc3ccccc3c2O)n[nH]1 [′9769, 2-(5-(2-Methylthiophen-3-yl)-1H-pyrazol-3-yl)naphthalen-1-ol]
  Specifc Activity @ 30 μM: 4.922 ± 1.261 nmol/min/mg
